Test results taken from publication PMC7364574 (ACS Omega, 2020).

What was measured:
A549 cells [1] = assay: Cell cycle distribution analysis by flow cytometry; type: cell-based; details: 24 h, control 56.06%
A549 cells [2] = assay: Apoptosis analysis by flow cytometry; type: cell-based; details: 24 h, control 5.16%
A549 cells [3] = assay: Acridine orange; type: cell-based; details: A549, 0.50 μM, 8 h
c-Met kinase = c-Met kinase (Homo sapiens, UniProt P08581); assay: c-Met tyrosine kinase mobility shift assay; type: biochemical; details: IC50 (μM) c-Met
c-Met kinase, sequence (P08581 25-1390): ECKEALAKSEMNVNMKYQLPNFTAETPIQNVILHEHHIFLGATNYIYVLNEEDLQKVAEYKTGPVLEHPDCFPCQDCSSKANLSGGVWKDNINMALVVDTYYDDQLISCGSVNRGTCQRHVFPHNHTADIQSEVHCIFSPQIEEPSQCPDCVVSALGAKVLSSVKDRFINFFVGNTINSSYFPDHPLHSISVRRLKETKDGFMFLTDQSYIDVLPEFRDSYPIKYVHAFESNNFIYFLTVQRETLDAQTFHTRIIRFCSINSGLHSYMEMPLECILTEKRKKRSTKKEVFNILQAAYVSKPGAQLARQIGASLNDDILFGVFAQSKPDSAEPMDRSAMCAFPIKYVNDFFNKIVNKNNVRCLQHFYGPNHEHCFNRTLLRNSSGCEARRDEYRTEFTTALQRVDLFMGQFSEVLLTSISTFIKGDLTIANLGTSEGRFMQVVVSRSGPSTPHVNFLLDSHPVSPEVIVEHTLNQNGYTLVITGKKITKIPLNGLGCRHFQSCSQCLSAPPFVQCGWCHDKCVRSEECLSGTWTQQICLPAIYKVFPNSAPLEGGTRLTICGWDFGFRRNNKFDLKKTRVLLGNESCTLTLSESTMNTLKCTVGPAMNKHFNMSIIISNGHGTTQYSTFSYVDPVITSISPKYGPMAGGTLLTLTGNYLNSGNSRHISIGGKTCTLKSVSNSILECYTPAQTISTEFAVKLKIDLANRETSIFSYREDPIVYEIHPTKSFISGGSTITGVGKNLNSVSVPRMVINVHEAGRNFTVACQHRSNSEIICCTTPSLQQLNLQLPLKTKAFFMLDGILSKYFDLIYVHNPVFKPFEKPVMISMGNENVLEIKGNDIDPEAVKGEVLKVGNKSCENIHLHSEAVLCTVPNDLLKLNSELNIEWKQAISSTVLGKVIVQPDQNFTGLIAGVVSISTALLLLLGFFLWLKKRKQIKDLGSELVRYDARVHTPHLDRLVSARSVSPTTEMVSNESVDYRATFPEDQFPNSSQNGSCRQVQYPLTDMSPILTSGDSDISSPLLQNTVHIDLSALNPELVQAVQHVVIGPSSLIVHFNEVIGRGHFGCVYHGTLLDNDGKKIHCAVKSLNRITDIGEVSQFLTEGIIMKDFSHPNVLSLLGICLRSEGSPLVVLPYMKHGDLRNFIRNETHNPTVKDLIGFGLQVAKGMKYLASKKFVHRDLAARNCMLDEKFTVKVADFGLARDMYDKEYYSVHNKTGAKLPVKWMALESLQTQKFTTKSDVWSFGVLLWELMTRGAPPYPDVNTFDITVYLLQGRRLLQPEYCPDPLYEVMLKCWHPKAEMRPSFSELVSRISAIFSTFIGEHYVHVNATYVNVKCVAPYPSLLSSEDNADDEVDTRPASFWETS

IC50 (c-Met kinase)	SMILES	G0/G1 phase population (A549 cells [1]; A549, 3.75 μM)	G0/G1 phase population (A549 cells [1]; A549, 7.50 μM)	G0/G1 phase population (A549 cells [1]; A549, 15.00 μM)	total apoptosis rate (A549 cells [2]; A549, 3.75 μM)	total apoptosis rate (A549 cells [2]; A549, 7.50 μM)	total apoptosis rate (A549 cells [2]; A549, 15.00 μM)	induction of apoptosis, AO staining (A549 cells [3])
0.09 to 0.21 µM	Cc1cc(Oc2ccc(NC(=O)c3sc(-c4ccccn4)nc3C)cc2)c2nncn2n1 [12e, 4-Methyl-N-(4-((6-methyl-[1,2,4]triazolo[4,3-b]pyridazin-8-yl)oxy)phenyl)-2-(pyridin-2-yl)thiazole-5-carboxamide]	60.25%	66.32%	76.84%	13.73%	24.87%	35.87%	significant effect on inducing apoptosis
0.09 to 0.21 µM	Cc1cc(Oc2ccc(NC(=O)c3cnn(-c4ccc(Cl)cc4)c3C(F)(F)F)cc2F)c2nncn2n1 [13b, 1-(4-Chlorophenyl)-N-(3-fluoro-4-((6-methyl-[1,2,4]triazolo[4,3-b]pyridazin-8-yl)oxy)phenyl)-5-(trifluoromethyl)-1H-pyrazole-4-carboxamide]							
